The results in this text go back to patent publication US20090311217A1, “3-SUBSTITUTED-1H-INDOLE COMPOUNDS, THEIR USE AS MTOR KINASE AND PI3 KINASE INHIBITORS, AND THEIR SYNTHESES” (priority 2008, published 2009).

What all share (assay type): biochemical
In one assay the target is PI3K-alpha (Homo sapiens, UniProt P42336). The assay is described as follows: PI3K-alpha fluorescence polarization assay. Particulars: read-out: PI3Kα Avg. IC50.
The next assay deals with T1, human TOR (Homo sapiens, UniProt P42345).
T1 construct: FLAG
Description: mTOR enzyme assay (DELFIA, His6-S6K substrate). Particulars: read-out: mTOR Kinase Avg. IC50.

A further assay deals with PI3K-gamma (Homo sapiens, UniProt P48736). Description: PI3K-gamma fluorescence polarization assay. Conditions: PI3Kγ Avg. IC50. The gist of the method:
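Each isoform (5 ng) phosphorylated 2.5 μM diC8-PI(4,5)P2 at 25 μM ATP for one hour at 25° C in the presence of inhibitor. Reactions were then stopped with EDTA, and product was detected by fluorescence polarization using a GST-GRP1 PH domain and a BODIPY-TMR-labelled IP4 tracer.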

Some results are limits rather than exact numbers.

Chain of PI3K-alpha (P42336 whole entry, species assumed): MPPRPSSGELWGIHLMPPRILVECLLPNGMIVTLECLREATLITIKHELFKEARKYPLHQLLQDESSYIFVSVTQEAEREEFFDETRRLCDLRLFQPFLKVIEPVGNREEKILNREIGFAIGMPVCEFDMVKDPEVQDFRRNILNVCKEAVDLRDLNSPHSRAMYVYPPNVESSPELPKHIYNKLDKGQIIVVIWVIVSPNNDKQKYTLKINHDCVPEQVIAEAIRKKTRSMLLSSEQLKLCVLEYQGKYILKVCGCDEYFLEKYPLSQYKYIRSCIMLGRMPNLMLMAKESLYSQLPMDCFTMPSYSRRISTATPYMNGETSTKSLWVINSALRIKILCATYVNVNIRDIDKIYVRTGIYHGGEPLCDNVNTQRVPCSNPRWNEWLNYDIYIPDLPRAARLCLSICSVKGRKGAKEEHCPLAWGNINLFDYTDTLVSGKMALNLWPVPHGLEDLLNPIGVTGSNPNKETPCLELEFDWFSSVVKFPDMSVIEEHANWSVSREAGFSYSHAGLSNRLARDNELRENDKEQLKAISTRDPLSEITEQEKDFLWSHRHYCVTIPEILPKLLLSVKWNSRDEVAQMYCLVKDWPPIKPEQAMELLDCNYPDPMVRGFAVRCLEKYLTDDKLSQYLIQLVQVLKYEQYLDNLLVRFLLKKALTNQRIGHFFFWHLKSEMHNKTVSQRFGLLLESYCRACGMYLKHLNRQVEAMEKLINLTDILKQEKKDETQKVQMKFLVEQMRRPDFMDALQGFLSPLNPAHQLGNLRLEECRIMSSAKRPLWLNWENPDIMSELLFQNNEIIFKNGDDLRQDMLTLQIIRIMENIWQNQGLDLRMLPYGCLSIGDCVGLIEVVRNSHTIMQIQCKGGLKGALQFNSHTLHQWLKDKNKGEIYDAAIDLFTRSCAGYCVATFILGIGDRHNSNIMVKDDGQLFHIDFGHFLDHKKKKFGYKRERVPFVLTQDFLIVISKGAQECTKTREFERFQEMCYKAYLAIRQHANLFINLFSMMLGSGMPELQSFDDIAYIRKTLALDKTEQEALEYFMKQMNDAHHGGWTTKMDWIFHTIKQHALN
Chain of PI3K-alpha (P27986 whole entry partner, species assumed): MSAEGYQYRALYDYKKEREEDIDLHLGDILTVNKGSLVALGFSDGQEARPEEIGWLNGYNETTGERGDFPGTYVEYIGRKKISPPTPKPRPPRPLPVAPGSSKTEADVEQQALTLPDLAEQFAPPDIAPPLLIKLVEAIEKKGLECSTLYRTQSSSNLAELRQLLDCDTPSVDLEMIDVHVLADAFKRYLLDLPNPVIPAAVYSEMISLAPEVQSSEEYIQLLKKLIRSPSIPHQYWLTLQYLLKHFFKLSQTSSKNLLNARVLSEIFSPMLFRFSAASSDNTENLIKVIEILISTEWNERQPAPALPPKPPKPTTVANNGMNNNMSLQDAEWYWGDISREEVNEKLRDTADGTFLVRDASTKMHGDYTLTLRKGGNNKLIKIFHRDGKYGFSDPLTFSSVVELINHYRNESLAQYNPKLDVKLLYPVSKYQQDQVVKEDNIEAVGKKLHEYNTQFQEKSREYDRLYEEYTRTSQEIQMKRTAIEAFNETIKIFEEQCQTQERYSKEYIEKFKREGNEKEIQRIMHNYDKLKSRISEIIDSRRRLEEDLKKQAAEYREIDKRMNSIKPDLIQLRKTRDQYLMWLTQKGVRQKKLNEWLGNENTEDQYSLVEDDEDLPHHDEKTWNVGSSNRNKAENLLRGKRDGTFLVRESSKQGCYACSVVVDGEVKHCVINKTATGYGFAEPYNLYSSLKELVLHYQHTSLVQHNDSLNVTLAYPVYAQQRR
Chain of PI3K-gamma (P48736 whole entry, species assumed, the tested form may be a part, canonical isoform): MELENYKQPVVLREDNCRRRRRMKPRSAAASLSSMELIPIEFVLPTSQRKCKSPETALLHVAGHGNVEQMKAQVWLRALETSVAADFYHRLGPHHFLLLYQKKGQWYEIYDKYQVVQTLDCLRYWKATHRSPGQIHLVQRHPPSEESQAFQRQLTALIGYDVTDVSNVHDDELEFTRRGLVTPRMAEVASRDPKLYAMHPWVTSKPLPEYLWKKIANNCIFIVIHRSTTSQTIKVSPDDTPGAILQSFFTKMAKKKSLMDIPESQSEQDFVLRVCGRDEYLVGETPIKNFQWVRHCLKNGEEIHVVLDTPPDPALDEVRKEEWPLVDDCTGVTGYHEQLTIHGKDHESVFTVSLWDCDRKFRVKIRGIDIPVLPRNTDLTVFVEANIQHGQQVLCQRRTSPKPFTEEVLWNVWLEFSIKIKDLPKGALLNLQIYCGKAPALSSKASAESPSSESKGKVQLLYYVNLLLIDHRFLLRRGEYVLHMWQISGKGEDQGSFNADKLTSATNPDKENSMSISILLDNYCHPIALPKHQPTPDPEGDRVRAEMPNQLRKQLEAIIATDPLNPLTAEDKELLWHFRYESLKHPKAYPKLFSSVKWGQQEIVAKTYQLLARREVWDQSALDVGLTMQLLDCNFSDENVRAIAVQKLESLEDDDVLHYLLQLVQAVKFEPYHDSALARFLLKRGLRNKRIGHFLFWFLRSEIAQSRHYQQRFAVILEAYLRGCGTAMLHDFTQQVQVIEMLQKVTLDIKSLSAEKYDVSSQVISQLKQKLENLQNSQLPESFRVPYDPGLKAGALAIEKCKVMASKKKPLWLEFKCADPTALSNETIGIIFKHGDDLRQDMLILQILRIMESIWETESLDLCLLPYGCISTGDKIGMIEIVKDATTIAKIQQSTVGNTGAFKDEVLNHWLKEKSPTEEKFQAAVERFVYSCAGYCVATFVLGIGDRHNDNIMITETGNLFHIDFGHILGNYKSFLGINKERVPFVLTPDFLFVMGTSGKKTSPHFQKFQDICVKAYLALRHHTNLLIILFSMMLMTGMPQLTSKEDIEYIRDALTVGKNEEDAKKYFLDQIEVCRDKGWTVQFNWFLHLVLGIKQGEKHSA

By IC50 is commonly meant the concentration that gives 50% inhibition. For the molecule `CCn1c(C)c(/C=C2\Oc3ccc(NC(=O)Nc4ccc(C(=O)N5CCOCC5)cc4)cc3C2=O)c2cc(OC)ccc21` [Compound 686, 1-{(2Z)-2-[(1-ethyl-5-methoxy-2-methyl-1H-indol-3-yl)methylidene]-3-oxo-2,3-dihydro-1-benzofuran-5-yl}-3-[4-(morpholin-4-ylcarbonyl)phenyl]urea], the concentration for half-maximal inhibition (IC50) at PI3K-alpha amounted to 0.7 nM; on human TOR, 110 nM; against PI3K-gamma, 5 nM.

`COc1ccc2c(c1)c(/C=C1\Oc3ccc(NC(=O)Nc4ccc(C(=O)N5CCOCC5)cc4)cc3C1=O)c(C)n2CCN1CCN(C)CC1` [Compound 687, 1-[(2Z)-2-({5-methoxy-2-methyl-1-[2-(4-methylpiperazin-1-yl)ethyl]-1H-indol-3-yl}methylidene)-3-oxo-2,3-dihydro-1-benzofuran-5-yl]-3-[4-(morpholin-4-ylcarbonyl)phenyl]urea]: the IC50 was 1.1 nM at PI3K-alpha, 87 nM at human TOR and 44 nM against PI3K-gamma.

With `COc1ccc2[nH]c(C3CCCCC3)c(/C=C3\Oc4ccc(NC(=O)Nc5ccc(C(=O)N(C)CCN(C)C)cc5)cc4C3=O)c2c1` [Compound 688, 4-[({(2Z)-2-[(2-cyclohexyl-5-methoxy-1H-indol-3-yl)methylidene]-3-oxo-2,3-dihydro-1-benzofuran-5-yl}carbamoyl)amino]-N-[2-(dimethylamino)ethyl]-N-methylbenzamide], the IC50 came out at 0.3 nM at PI3K-alpha, 6 nM at human TOR and 1.95 nM at PI3K-gamma.

Regarding `COc1ccc2[nH]c(-c3c(C)nn(C)c3C)c(/C=C3\Oc4ccc(NC(=O)Nc5ccc(C(=O)N6CCN(C)CC6)cc5)cc4C3=O)c2c1` [Compound 689, 1-[(2Z)-2-{[5-methoxy-2-(1,3,5-trimethyl-1H-pyrazol-4-yl)-1H-indol-3-yl]methylidene}-3-oxo-2,3-dihydro-1-benzofuran-5-yl]-3-{4-[(4-methylpiperazin-1-yl)carbonyl]phenyl}urea], the half-maximal inhibitory concentration (IC50) worked out at 0.2 nM at PI3K-alpha, 4 nM on human TOR and 2.5 nM at PI3K-gamma.

For `COc1ccc2[nH]c(-c3c(C)nn(C)c3C)c(/C=C3\Oc4ccc(NC(=O)Nc5ccc(C(=O)N6CCOCC6)cc5)cc4C3=O)c2c1` [Compound 690, 1-[(2Z)-2-{[5-methoxy-2-(1,3,5-trimethyl-1H-pyrazol-4-yl)-1H-indol-3-yl]methylidene}-3-oxo-2,3-dihydro-1-benzofuran-5-yl]-3-[4-(morpholin-4-ylcarbonyl)phenyl]urea], the IC50 is 0.2 nM at PI3K-alpha, 4 nM on human TOR and 2.75 nM against PI3K-gamma.

As to `COc1ccc2[nH]c(-c3c(C)nn(C)c3C)c(/C=C3\Oc4ccc(NC(=O)Nc5ccc(NC(=O)CCN(C)C)cc5)cc4C3=O)c2c1` [Compound 691, N-[4-({[(2Z)-2-{[5-methoxy-2-(1,3,5-trimethyl-1H-pyrazol-4-yl)-1H-indol-3-yl]methylidene}-3-oxo-2,3-dihydro-1-benzofuran-5-yl]carbamoyl}amino)phenyl]-N3,N3-dimethyl-b-alaninamide], the IC50 worked out at 0.25 nM on PI3K-alpha, 1 nM on human TOR and 2.1 nM on PI3K-gamma.

Consider `CNC(=O)Nc1ccc2c(c1)C(=O)/C(=C/c1c(Br)[nH]c3ccc(OC)cc13)O2` [Compound 692, 1-{(2Z)-2-[(2-bromo-5-methoxy-1H-indol-3-yl)methylidene]-3-oxo-2,3-dihydro-1-benzofuran-5-yl}-3-methylurea], for which the figures for the concentration for half-maximal inhibition (IC50) at PI3K-alpha, at human TOR and on PI3K-gamma were 7 nM, 8 nM and 105 nM, respectively.

With `CNC(=O)Nc1ccc2c(c1)C(=O)/C(=C/c1c(-c3c(C)nn(C)c3C)[nH]c3c(F)cc(OC)cc13)O2` [Compound 693, 1-[(2Z)-2-{[7-fluoro-5-methoxy-2-(1,3,5-trimethyl-1H-pyrazol-4-yl)-1H-indol-3-yl]methylidene}-3-oxo-2,3-dihydro-1-benzofuran-5-yl]-3-methylurea], the figures for the half-maximal inhibitory concentration (IC50) on PI3K-alpha, at human TOR and at PI3K-gamma were 0.75 nM, below 1 nM and 5.07 nM, respectively.

In the case of `CCn1c(C)c(/C=C2\Oc3ccc(NC(=O)Nc4ccc(N(C)C(=O)CCN(C)C)cc4)cc3C2=O)c2cc(OC)ccc21` [Compound 694, N-{4-[({(2Z)-2-[(1-ethyl-5-methoxy-2-methyl-1H-indol-3-yl)methylidene]-3-oxo-2,3-dihydro-1-benzofuran-5-yl}carbamoyl)amino]phenyl}-N,N3,N3-trimethyl-b-alaninamide], the IC50 turned out to be 4 nM at PI3K-alpha, 155 nM at human TOR and 95 nM on PI3K-gamma.

As to `COc1ccc2c(c1)c(/C=C1\Oc3ccc(NC(=O)Nc4ccc(N(C)C(=O)CCN(C)C)cc4)cc3C1=O)c(C)n2CCN1CCN(C)CC1` [Compound 695, N-[4-({[(2Z)-2-({5-methoxy-2-methyl-1-[2-(4-methylpiperazin-1-yl)ethyl]-1H-indol-3-yl}methylidene)-3-oxo-2,3-dihydro-1-benzofuran-5-yl]carbamoyl}amino)phenyl]-N,N3,N3-trimethyl-b-alaninamide], the results for the IC50 on PI3K-alpha, at human TOR and at PI3K-gamma were 4 nM, 330 nM and above 5500 nM, respectively.

In the case of `COc1ccc2[nH]c(-c3c(C)nn(C)c3C)c(/C=C3\Oc4ccc(NC(=O)Nc5ccc(N(C)C(=O)CCN(C)C)cc5)cc4C3=O)c2c1` [Compound 696, N-(4-{[(2-{[5-methoxy-2-(1,3,5-trimethyl-1H-pyrazol-4-yl)-1H-indol-3-yl]methylidene}-3-oxo-2,3-dihydro-1-benzofuran-5-yl)carbamoyl]amino}phenyl)-N,N3,N3-trimethyl-b-alaninamide], the IC50 on PI3K-alpha came to 3 nM; at human TOR, 5 nM; against PI3K-gamma it was 48 nM.

On to `COc1ccc2[nH]c(-c3c(C)nn(C)c3C)c(/C=C3\Oc4ccc(NC(=O)Nc5ccc(C(=O)N6CCC(N(C)C)C6)cc5)cc4C3=O)c2c1` (stereo not drawn) [Compound 697, 1-(4-{[3-(dimethylamino)pyrrolidin-1-yl]carbonyl}phenyl)-3-[(2Z)-2-{[5-methoxy-2-(1,3,5-trimethyl-1H-pyrazol-4-yl)-1H-indol-3-yl]methylidene}-3-oxo-2,3-dihydro-1-benzofuran-5-yl]urea], for which the results for the 50% inhibitory concentration (IC50) on PI3K-alpha, at human TOR and at PI3K-gamma were 0.25 nM, 1 nM and 1.4 nM, respectively.

For the molecule `COc1ccc2[nH]c(-c3c(C)nn(C)c3C)c(/C=C3\Oc4ccc(NC(=O)Nc5ccc(C(=O)N(C)C6CCN(C)C6)cc5)cc4C3=O)c2c1` (stereo not drawn) [Compound 698, 4-({[(2Z)-2-{[5-methoxy-2-(1,3,5-trimethyl-1H-pyrazol-4-yl)-1H-indol-3-yl]methylidene}-3-oxo-2,3-dihydro-1-benzofuran-5-yl]carbamoyl}amino)-N-methyl-N-(1-methylpyrrolidin-3-yl)benzamide], the results for the IC50 on PI3K-alpha, at human TOR and against PI3K-gamma were 0.3 nM, 1 nM and 3 nM, respectively.

Regarding `CCN1CCN(C(=O)c2ccc(NC(=O)Nc3ccc4c(c3)C(=O)/C(=C/c3c(-c5c(C)nn(C)c5C)[nH]c5ccc(OC)cc35)O4)cc2)CC1` [Compound 699, 1-{4-[(4-ethylpiperazin-1-yl)carbonyl]phenyl}-3-[(2Z)-2-{[5-methoxy-2-(1,3,5-trimethyl-1H-pyrazol-4-yl)-1H-indol-3-yl]methylidene}-3-oxo-2,3-dihydro-1-benzofuran-5-yl]urea], the concentration for half-maximal inhibition (IC50) amounted to 0.4 nM on PI3K-alpha, 5 nM on human TOR and 3 nM against PI3K-gamma.

Consider `COc1ccc2[nH]c(-c3c(C)nn(C)c3C)c(/C=C3\Oc4ccc(NC(=O)Nc5ccc(C(=O)N6CCN(C(C)C)CC6)cc5)cc4C3=O)c2c1` [Compound 700, 1-[(2Z)-2-{[5-methoxy-2-(1,3,5-trimethyl-1H-pyrazol-4-yl)-1H-indol-3-yl]methylidene}-3-oxo-2,3-dihydro-1-benzofuran-5-yl]-3-(4-{[4-(1-methylethyl)piperazin-1-yl]carbonyl}phenyl)urea], for which the figures for the half-maximal inhibitory concentration (IC50) at PI3K-alpha, at human TOR and against PI3K-gamma were 0.4 nM, 2 nM and 3 nM, respectively.

In the case of `COc1ccc2[nH]c(-c3c(C)nn(C)c3C)c(/C=C3\Oc4ccc(NC(=O)Nc5ccc(C(=O)N(C)CCN6CCCC6)cc5)cc4C3=O)c2c1` [Compound 701, 4-({[(2Z)-2-{[5-methoxy-2-(1,3,5-trimethyl-1H-pyrazol-4-yl)-1H-indol-3-yl]methylidene}-3-oxo-2,3-dihydro-1-benzofuran-5-yl]carbamoyl}amino)-N-methyl-N-(2-pyrrolidin-1-ylethyl)benzamide], the IC50 on PI3K-alpha was 0.3 nM; on human TOR, 1 nM; at PI3K-gamma, 3 nM.

Turning to `COc1ccc2[nH]c(-c3c(C)nn(C)c3C)c(/C=C3\Oc4ccc(NC(=O)Nc5ccc(C(=O)N6CCC(N(C)C)CC6)cc5)cc4C3=O)c2c1` [Compound 702, 1-(4-{[4-(dimethylamino)piperidin-1-yl]carbonyl}phenyl)-3-[(2Z)-2-{[5-methoxy-2-(1,3,5-trimethyl-1H-pyrazol-4-yl)-1H-indol-3-yl]methylidene}-3-oxo-2,3-dihydro-1-benzofuran-5-yl]urea], the IC50 turned out to be 0.3 nM on PI3K-alpha, 1 nM at human TOR and 3 nM at PI3K-gamma.

`COc1ccc2[nH]c(-c3c(C)nn(C)c3C)c(/C=C3\Oc4ccc(NC(=O)Nc5ccc(C(=O)N6CCN(C)C(C)C6)cc5)cc4C3=O)c2c1` (stereo not drawn) [Compound 703, 1-{4-[(3,4-dimethylpiperazin-1-yl)carbonyl]phenyl}-3-[(2Z)-2-{[5-methoxy-2-(1,3,5-trimethyl-1H-pyrazol-4-yl)-1H-indol-3-yl]methylidene}-3-oxo-2,3-dihydro-1-benzofuran-5-yl]urea]: the IC50 turned out to be 0.3 nM on PI3K-alpha, 3 nM on human TOR and 2.5 nM against PI3K-gamma.
